Assay results from patent US6433012B1, “Method for inhibiting inflammatory disease” (Large Scale Biology Corp., priority 1998, dated 2002).
“Also recorded” adds a separate entry of the source.

Assays:
HeLa cells = test: Cellular microtubule networks; type: cell-based, human; settings: 10 μM for 1 h
[1] = test system: MDA MB-231 human breast carcinoma xenografts; test: Tumor growth delay, MDA MB-231 xenografts; type: in vivo, Swiss NCr nude (nu/nu) female mice; settings: oral treatment, 6 weeks of therapy
Protocol: (§1) Intraperitoneally administered cyclophosphamide (CTX; Cytoxan; 150 mg/kg), which is used in some regimens for adjuvant breast cancer therapy was used as a positive control.

MCF-7 cell cultures = test: Cytotoxicity in vitro (reduction of cell number); type: cell-based; settings: Homo sapiens, MCF7; treated for 48 h; read-out: IC50 (50% reduction of cell number relative to vehicle-treated control)
[2] = Bone marrow toxicity, histological examination; type: in vivo; settings: 500 mg/kg-day by gavage for 4 weeks
Protocol: Swiss Webster mice were exposed to the drug at 500 mg/kg-day by gavage for a period of 4 weeks, and bone marrow was examined histologically.

[3] = test system: R3230Ac rat mammary carcinoma; test: Dorsal skin-fold window chamber assay; type: in vivo, Fischer 344 rats
Description: Details of the design and the surgical technique used for the rat dorsal skin-fold window chamber assay have been described elsewhere (Pappenfuss et al., Microvasc. Res. 18:311-318 (1979)). Briefly, the anatomical midline of the dorsal skin flap of an anesthetized rat was sutured to a pair of C-clamps and a skin-fold was retracted from the body surface by hanging the C-clamp on a stage. A circle of 1 cm of skin on each side of the skin-fold was surgically removed leaving two layers of fascia containing a few microvessels. After a pair of window frames was mounted, a piece of a R3230Ac rat mammary carcinoma (about 0.5 mm^3) from a donor rat was implanted onto the fascia in the window and the chamber was sealed with glass cover slips. On the fourth postoperative day, all tumor-containing windows were evaluated using an intravital microscope. The viability of the tumor implants, vasculature morphology, and blood flow in each window were crudely scored with 1-3 points assigned to each category. Only those windows with more than 6 points on this scale were included for further study. […] Tumor-window-bearing animals were randomly divided into treated and control groups that were stratified by the window scores. […] On day 12, the tumor windows were evaluated for the effect of the drug on tumor growth and vascularization. Images of whole tumors and tumor vasculature were obtained from four peripheral tumor areas, three to four central tumor areas, and from four areas in the surrounding granulating tissue, as described above. Again, measurements of various image parameters were made by an investigator who was unaware of the treatment protocol. Using the image analysis software, the cumulative length of all vessels in focus in each image was measured. Vascular length densities were calculated by dividing the total vessel length in a frame by the area of the frame. The diameters of all vessels in each image at high magnification were also measured and averaged.
All data were reported as means +/− the SEM for each group. The statistical significance of differences between treated and control groups was determined by using an unpaired t-test or the Mann-Whitney U-test. Statistically significant differences were defined as having a p<0.05.

[4] = test system: MCF-7 human breast carcinoma cells; test: Chromosome condensation / prometaphase arrest; type: cell-based; settings: 1 μM for 24 h
[5] = Oral (gavage) toxicity in nude mice; type: in vivo; settings: doses as high as 1,000 mg/kg-day for 60 to 180 days
[6] = test system: OVCAR-3 human ovarian carcinoma xenografts; test: Tumor growth delay, OVCAR-3 xenografts; type: in vivo, nude mice; settings: oral treatment, at 5 weeks
Protocol: as §1

[7] = test system: TNF-α mRNA in murine macrophage PU5-1.8 cell line; test: TNF-α mRNA in LPS-stimulated macrophages (Northern blot); type: cell-based
Protocol: The murine macrophage PU5-1.8 cell line was purchased from the American Type Culture Collection (ATCC, Rockville, Md.). Cells were grown in DMEM medium supplemented with […], 0.1 mM nonessential amino acids, 2 mM glutamine and 5% fetal bovine serum (Life Technologies, Staten Island, N.Y.). Cells were maintained in a humidified atmosphere of 5% CO2-95% air at 37° C. Cells were passages twice weekly by firmly tapping the side of the flask to dislodge the adherent cells. Both nonadherent and adherent cells were passages. Exponentially growing cells were seeded at 5×10 ^5/mL, 4mL per 60-mm dish 24 h prior to the experiment. Test compounds were delivered in 1 mL volumes of the medium added to each dish at the start of the experiment. All dishes were incubated at 37° C. in 5% CO2-95% air for 3 h.
Total RNA was isolated by the guanidinium-cesium chloride method as described in N. S. Waleh, J. Gallo, T. D. Grant, B. J. Murphy, R. H. Kramer and R. M. Sutherland. (1994) “Selective downregulation of integrin receptors in spheroids of squamous cell carcinoma” Cancer Res., 54:838-843. Five to 10 μg of total RNA was electrophoresed in 1% agarose gels containing 6% formaldehyde. Following electrophoresis, gels were stained with ethidium bromide to visualize the positions of 28S and 18S RNA. The RNAs were then transferred to nylon membranes (Amersham Hybond N) by capillary blotting and fixed to the filter by exposure to UV light. The blots were probed with ^32P-labeled cDNA sequences of human TNF-α obtained from the American Type Culture Collection (ATCC). The TNF-α cDNA was a 1.1 kb PstI fragment of plasmid pE4 in E. coli MM294 (ATCC 39894). Hybridizations were carried out at 42° C. in 50% formamide, 5×SSC, 5×Denhardt's solution, 0.1% SDS, and 0.3 mg/mL salmon sperm DNA. Filters were washed by 1×SSC, 0.1% SDS, twice at room temperature for 15 min and once at 55° C. in 0.1×SSC, 0.1% SDS for 1 hr. Filters were exposed to X-ray film at −70° C. using an intensifying screen (Coronex Hi-Plus).
Hybridized bands were quantified by analyzing the images obtained by using a video densitometer (Applied Imaging Corporation, Santa Clara, Calif.). Film densities were calibrated using an optical-density wedge.

[8] = test system: MDA MB-231 and MCF-7 cells; test: Nuclear morphology of breast carcinoma cells; type: cell-based, human; settings: 1 μ for 48 h
MCF-7 cells [9] = test: Flow cytometry, cell-cycle progression; type: cell-based, human; settings: 1 μM, within 24 h
Description: Such arrested cells eventually undergo cell death which can occur by an apoptotic mechanism.

MCF-7 cells [10] = test: Trypan blue exclusion assay (loss of membrane integrity); type: cell-based; settings: 1 μM, 48 h of exposure
MDA MB-231 cell cultures = test: Cytotoxicity in vitro (reduction of cell number); type: cell-based; settings: Homo sapiens, treated for 48 h, read-out: IC50 (50% reduction of cell number relative to vehicle-treated control)
[11] = oral, postoperative days 5 to 11, no significant difference to controls

SMILES: COC(=O)c1cc(I)c(Oc2ccc(OC)cc2)c(I)c1 [BTO-956, methyl-3,5-diiodo-4-(4′-methoxyphenoxy)benzoate]
- cellular microtubule networks (HeLa cells): aberrant microtubule networks
- growth of tumors (relative mean tumor volume) [1]: suppressed
- IC50 (MCF-7 cell cultures): 600 nM
- bone marrow profiles [2]: did not differ from those of control animals
- hematopoietic abnormalities [2]: no hematopoietic abnormalities
- reduction of tumor areas compared with controls ([3]; oral, postoperative days 5 to 11): more than 50%
- vascular diameter in central tumor areas [3, 11]: 35.84±9.63 μm
- vascular diameter in peripheral tumor areas [3, 11]: 32.19±4.46 μm
- vascular diameter in surrounding areas [3, 11]: 21.52±3.33 μm
- vascular length density in central tumor areas [3, 11]: 3.26±0.81 mm/mm^2
- vascular length density in surrounding granulating tissue [3, 11]: 8.71±1.05 mm/^2
- body weight loss or behavioral changes / toxic effects ([3]; tumor-bearing rats, oral 500 mg/kg, up to seven days, 500 mg/kg): No significant body weight loss or behavioral changes; also recorded: No serious toxic effects
- chromosome condensation (prometaphase arrest) [4]: A large fraction of these cells showed chromosome condensation characteristic of a prometaphase arrest
- gross pathology [5]: No other gross pathology
- liver and kidney weights [5]: only slight and transient increases
- relative mean tumor volume, fold less than vehicle-treated controls [6]: approximately 5 fold
- inhibition of TNF-α mRNA accumulation ([7]; 10 μM added to LPS (100 ng/mL) treated cultures, 3 h): 61%
- effect on TNF-α mRNA expression, compound only ([7]; 10 μM, without LPS, 3 h): no effect
- total RNA integrity ([7]; cells treated with different concentrations): intact
- amounts of TNF-α mRNA, concentration-effect relationship ([7]; various concentrations with LPS for 3 h): declined with the increasing concentrations
- nuclear morphology [8]: a significant number had condensed or fragmented nuclei
- cells arrested at G2/M (MCF-7 cells [9]): at least 60%
- cytotoxicity by loss of membrane integrity (trypan blue exclusion) (MCF-7 cells [10]): substantial cytotoxicity
- IC50 (MDA MB-231 cell cultures): 300 nM
